Like-named read-outs stand apart in the source and are kept apart here.
Assays:
[1] = target: T1, xanthine oxidase (Bos taurus, UniProt P80457); test: Xanthine oxidase (XO) inhibitory assay; type: biochemical, Bovine; details: read-out: XO inhibition (%)
T1 construct: purchased Roche Diagnostics (Mannheim, Germany)
Method: A total of 100 μL of test samples containing dimethyl sulfoxide (100 μg/mL) and 0.1 U/mL xanthine oxidase (100 µL) were added to a 0.05 M potassium phosphate buffer (1.3 mL, pH 7.5). The mixture was then incubated at 25 °C for 10 min. A 1 mL of 0.15 mM xanthine was added into the solution, then incubated at 30 °C for 10 min. […] The percentage of XO inhibition was calculated as follows: Inhibition (%)=Absorbancenegative control−Absorbancesample/Absorbancenegative control×100% Absorbancenegative control = Absorbance of the negative control (without inhibitors) Absorbancesample = Absorbance of the solution containing test samples

[2] = target: T2, XO (Bos taurus, UniProt P80457); test: Circular dichroism (CD) analysis of XO secondary structure; parameters: species or system Bovine
T2 construct: purchased Roche Diagnostics (Mannheim, Germany)
T2 sequence (P80457 whole entry): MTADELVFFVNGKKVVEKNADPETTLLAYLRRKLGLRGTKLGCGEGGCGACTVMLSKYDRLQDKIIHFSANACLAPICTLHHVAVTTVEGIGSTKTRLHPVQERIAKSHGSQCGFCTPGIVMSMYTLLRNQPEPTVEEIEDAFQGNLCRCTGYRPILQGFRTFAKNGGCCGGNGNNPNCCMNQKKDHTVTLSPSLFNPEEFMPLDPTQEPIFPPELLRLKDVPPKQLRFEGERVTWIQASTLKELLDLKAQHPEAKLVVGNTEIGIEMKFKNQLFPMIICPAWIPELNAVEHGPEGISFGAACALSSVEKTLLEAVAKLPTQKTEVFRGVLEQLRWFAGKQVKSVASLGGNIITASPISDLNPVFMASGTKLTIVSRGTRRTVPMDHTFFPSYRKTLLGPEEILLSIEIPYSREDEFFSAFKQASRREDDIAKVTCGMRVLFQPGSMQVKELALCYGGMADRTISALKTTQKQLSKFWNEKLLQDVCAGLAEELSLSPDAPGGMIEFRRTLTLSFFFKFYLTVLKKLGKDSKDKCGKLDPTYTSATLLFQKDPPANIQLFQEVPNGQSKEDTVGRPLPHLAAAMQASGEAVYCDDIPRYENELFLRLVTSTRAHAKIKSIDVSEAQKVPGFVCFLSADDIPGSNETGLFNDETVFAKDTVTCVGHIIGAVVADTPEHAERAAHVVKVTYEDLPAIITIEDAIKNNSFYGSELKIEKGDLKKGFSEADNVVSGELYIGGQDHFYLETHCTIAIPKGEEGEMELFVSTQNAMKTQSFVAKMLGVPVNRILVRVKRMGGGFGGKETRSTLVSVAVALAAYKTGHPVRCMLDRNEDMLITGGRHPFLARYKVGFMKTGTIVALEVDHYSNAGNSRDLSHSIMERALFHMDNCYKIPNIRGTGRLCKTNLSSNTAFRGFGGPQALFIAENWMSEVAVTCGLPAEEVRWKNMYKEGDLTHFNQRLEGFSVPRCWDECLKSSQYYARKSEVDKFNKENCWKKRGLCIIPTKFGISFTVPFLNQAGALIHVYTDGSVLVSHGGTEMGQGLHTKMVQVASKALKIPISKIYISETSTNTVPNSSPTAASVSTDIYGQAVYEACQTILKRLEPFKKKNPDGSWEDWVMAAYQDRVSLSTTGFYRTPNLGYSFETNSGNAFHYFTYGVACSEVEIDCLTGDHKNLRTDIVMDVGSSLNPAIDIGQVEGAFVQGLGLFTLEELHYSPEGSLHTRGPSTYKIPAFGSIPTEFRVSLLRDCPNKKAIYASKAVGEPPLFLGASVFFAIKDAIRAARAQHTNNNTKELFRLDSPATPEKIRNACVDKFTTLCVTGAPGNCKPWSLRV
Method: The analysis was carried out according to a modified method. […] The measurement was performed in potassium phosphate buffer (pH 7.5) at room temperature. […] The JASCO SSE (Secondary Structure Estimation) software was used to analyze the CD spectroscopic data with Reed’s reference to obtain the data of various secondary structures of XO with respective ligands.

[3] = test system: XO; details: cited from earlier work
[4] = target: T2, XO; test: Fluorescence quenching assay of XO; type: binding, Bovine; details: pH 7.5; for Kd: Modified Stern-Volmer association constant Ka
Method: The assay was carried out by referring to a previous method with slight modifications. […] Titrations were performed manually and mixed carefully. […] The excitation wavelength was set at 280 nm, and the excitation and emission slits were 5 nm. The fluorescence background was corrected by subtracting the relevant blanks corresponding to the potassium phosphate buffer (pH 7.5).
To distinguish the mechanism of quenching various inhibitors on XO, the fluorescence quenching output was analyzed by applying the Stern-Volmer equation [34]: F0/F=1+KSV[Q]=1+Kqτ0[Q] where F0 and F represent the steady-state fluorescence intensities of XO in the absence and presence of the respective inhibitor. KSV is the Stern-Volmer quenching constant, determined from the slope of the linear regression of F0/F against the [Q] plot. [Q] represents the concentration of the inhibitor.
Then, Ka values for the inhibitor-XO complex at three different temperatures were calculated from the linear regression of F0/(F0 − F) against 1/[Q].

[5] = at 100 μg/mL, mean ± SEM, n = 3
[6] = molar ratio XO:inhibitor 1:5, pH 7.5 (free XO 15.4)
[7] = molar ratio XO:inhibitor 1:5, pH 7.5 (free XO 19.7)
[8] = molar ratio XO:inhibitor 1:5, pH 7.5 (free XO 65.0)
[9] = molar ratio XO:inhibitor 1:10, pH 7.5 (free XO 15.4)
[10] = molar ratio XO:inhibitor 1:10, pH 7.5 (free XO 19.7)
[11] = molar ratio XO:inhibitor 1:10, pH 7.5 (free XO 65.0)
[12] = previous study, read-out: IC50 (XO inhibitory effect)

T1 sequence (P80457 whole entry): as above

For `O=c1cc(-c2ccc(O)cc2)oc2cc(O)cc(O)c12` [Apigenin, apigenin], the inhibition at 100 µg/mL [1, 5] was 56.6 ± 1.77%, the “Random Coil (%) of XO” value [2, 6] was 22.2% and the “α-Helix (%) of XO” value [2, 7] was 10.8%. For the same compound, the “β-Sheet (%) of XO” value [2, 8] was 67.0%, the “Random Coil (%) of XO” value [2, 9] was 0.0% and the “α-Helix (%) of XO” value [2, 10] was 36.7%. The “β-Sheet (%) of XO” value [2, 11] was 63.3%, the IC50 [3, 12] was 3.2 µM and the “Quenching constant KSV” value ([4]; 298 K) was 130200 L/mol. The “Quenching rate constant Kq” value ([4]; 298 K) was 4.65e+13 M⁻¹ s⁻¹, the “Quenching constant KSV” value ([4]; 304 K) was 332400 L/mol and the “Quenching rate constant Kq” value ([4]; 304 K) was 1.187e+14 M⁻¹ s⁻¹. For the same compound, the “Quenching constant KSV” value ([4]; 310 K) was 182100 L/mol, the “Quenching rate constant Kq” value ([4]; 310 K) was 6.504e+13 M⁻¹ s⁻¹ and the Kd ([4]; 298 K) was 5.33 µM. The Kd ([4]; 304 K) was 3.5 µM and the Kd ([4]; 310 K) was 4.3 µM.

For `COc1cc(CC(=O)O)ccc1O` [Homovanillic acid, homovanillic acid], the inhibition at 100 µg/mL [1] was 30 ± 2.18%, the “Random Coil (%) of XO” value [2, 6] was 0.0% and the “α-Helix (%) of XO” value [2, 7] was 36.3%. For the same compound, the “β-Sheet (%) of XO” value [2, 8] was 63.7%, the “Random Coil (%) of XO” value [2, 9] was 27.0% and the “α-Helix (%) of XO” value [2, 10] was 5.1%. The “β-Sheet (%) of XO” value [2, 11] was 67.9%, the “XO inhibitory potency (in words)” value ([3]; ref 28 (Mohos et al.)) was “less potent inhibitor of XO” and the “Quenching constant KSV” value ([4]; 298 K) was 49100 L/mol. For the same compound, the “Quenching rate constant Kq” value ([4]; 298 K) was 1.754e+13 M⁻¹ s⁻¹, the “Quenching constant KSV” value ([4]; 304 K) was 93100 L/mol and the “Quenching rate constant Kq” value ([4]; 304 K) was 3.325e+13 M⁻¹ s⁻¹. The “Quenching constant KSV” value ([4]; 310 K) was 698800 L/mol, the “Quenching rate constant Kq” value ([4]; 310 K) was 2.4957e+14 M⁻¹ s⁻¹ and the Kd ([4]; 298 K) was 5.61 µM. It also gave a Kd ([4]; 304 K) of 2.67 µM and a Kd ([4]; 310 K) of 4.15 µM.

`Oc1ncnc2[nH]ncc12` [Allopurinol, allopurinol, reference compound] showed an inhibition at 100 µg/mL [1] of 96.5 ± 2.4%.

With `O=c1c(O)c(-c2ccc(O)cc2)oc2cc(O)cc(O)c12` [Kaempferol, kaempferol] the inhibition at 100 µg/mL [1, 5] was 81.9 ± 3.31%, the “Random Coil (%) of XO” value [2, 6] was 11.2% and the “α-Helix (%) of XO” value [2, 7] was 17.1%. The “β-Sheet (%) of XO” value [2, 8] was 71.7%, the “Random Coil (%) of XO” value [2, 9] was 34.2% and the “α-Helix (%) of XO” value [2, 10] was 0.0%. For the same compound, the “β-Sheet (%) of XO” value [2, 11] was 65.8%, the IC50 [3, 12] was 2.18 ± 0.02 µM and the “Quenching constant KSV” value ([4]; 298 K) was 97700 L/mol. The “Quenching rate constant Kq” value ([4]; 298 K) was 3.489e+13 M⁻¹ s⁻¹, the “Quenching constant KSV” value ([4]; 304 K) was 396400 L/mol and the “Quenching rate constant Kq” value ([4]; 304 K) was 1.416e+14 M⁻¹ s⁻¹. For the same compound, the “Quenching constant KSV” value ([4]; 310 K) was 277900 L/mol and the “Quenching rate constant Kq” value ([4]; 310 K) was 9.925e+13 M⁻¹ s⁻¹.

For `O=C(O)/C=C/c1ccccc1` [Trans-cinnamic acid, trans-cinnamic acid], the inhibition at 100 µg/mL [1, 5] was 57.6 ± 6%, the “Random Coil (%) of XO” value [2, 6] was 0.0% and the “α-Helix (%) of XO” value [2, 7] was 36.4%. For the same compound, the “β-Sheet (%) of XO” value [2, 8] was 63.6%, the “Random Coil (%) of XO” value [2, 9] was 22.7% and the “α-Helix (%) of XO” value [2, 10] was 10.4%. For the same compound, the “β-Sheet (%) of XO” value [2, 11] was 66.9%, the IC50 ([3]; ref 27 (Chang et al.), read-out: IC50 (XO inhibition)) was > 200 µM and the “Quenching constant KSV” value ([4]; 298 K) was 180000 L/mol. For the same compound, the “Quenching rate constant Kq” value ([4]; 298 K) was 6.429e+13 M⁻¹ s⁻¹, the “Quenching constant KSV” value ([4]; 304 K) was 282300 L/mol and the “Quenching rate constant Kq” value ([4]; 304 K) was 1.008e+14 M⁻¹ s⁻¹. For the same compound, the “Quenching constant KSV” value ([4]; 310 K) was 278400 L/mol, the “Quenching rate constant Kq” value ([4]; 310 K) was 9.943e+13 M⁻¹ s⁻¹ and the Kd ([4]; 298 K) was 8.02 µM. It also gave a Kd ([4]; 304 K) of 3.62 µM and a Kd ([4]; 310 K) of 3.49 µM.

— paper PMC9864848, “A Study of the Interaction between Xanthine Oxidase and Its Inhibitors from Chrysanthemum morifolium Using Computational Simulation and Multispectroscopic Methods” (Metabolites, 2023)
